From patent US6319929A, “Suksdorfin analogs, compositions thereof, and methods for making and using thereof” (priority 1998, dated 2001) come the findings set out here.

Where two headings read alike, the source gives them in different places.

In one series the test system is uninfected H9 cells. The series is described as follows: Toxicity to uninfected H9 cells (cell growth). In kind it is cell-based. As to conditions: for IC50: Homo sapiens. On the procedure:
(§1) HIV inhibition assay. The HIV inhibition was measured as described herein. Briefly, H9 cells, a T cell line, (3.5×10^6 cells/ml) were incubated in the presence or absence of HIV-1 (IIIB strain, 0.01-0.1 TCID50 /cell) for 1 hour at 37° C. Cells were washed thoroughly and resuspended at a final concentration of 2×10^5 cells/ml in the presence or absence of compound. After incubation for 3-4 days at 37° C., the cell density of uninfected cultures was determined by cell count to assess toxicity of the drug. An aliquot of each cell-free supernatant was assayed by p24 antigen ELISA to quantitate the amount of HIV-1 present in the infected cultures. Test compounds were considered to be active at a particular concentration if p24 antigen levels were less than 70% of infected, untreated controls and were nontoxic to uninfected H9 cells.
(§2) HIV Growth Inhibition Assay: The T cell line, H9, and the promonocytic cell line, U937, were maintained separately in continuous culture with complete medium (RPMI 1640 and […] fetal calf serum (FCS) at 5% CO2 and 37° C. Cell lines were used in experiments only when in log phase of growth; whereas, uninfected peripheral blood mononuclear cells (PBMCs) were first stimulated with PHA (1 μg/ml) for 3 days. All cell targets were incubated with HIV-1 (IIIB isolate, TCID50 10 ^4 IU/mi, at a multiplicity of infection of 0.1-0.01 IU/cell) for 1 hour at 37° C. and 5% CO2. The cell lines and PBMCs were washed thoroughly to remove unabsorbed virions and resuspended at 4×10^5 cells/ml in complete medium or complete medium with 10% v/v interleukin […] IL-2, respectively. Aliquots ( ml) were placed in wells of 24-well culture plates containing an equal volume of test compound (diluted in the appropriate culture medium). After incubation for 4 days at 37° C., cell density of uninfected cultures was determined by counting cells in a Coulter counter to assess toxicity of the test compound. A p24 antigen ELISA assay was used to determine the level of virus released in the medium of the HIV-infected cultures. The p24 antigen assay uses a HIV-1 anti-p24 specific monoclonal antibody as the capture antibody coated-on 96-well plates. Following a sample incubation period, rabbit serum containing antibodies for HIV-1 p24 is used to tag any p24 "captured" onto the microtiter well surface. Peroxidase conjugated goat anti-rabbit serum is then used to tag HIV-1 p24 specific rabbit antibodies which have complexed with captured p24. […] The cut-off for the p24 ELISA assay is 12. pg/ml. P24 in the culture medium was quantitated against a standard curve containing known amounts of p24. The effective (EC50) and inhibitory (IC50) concentrations (for anti-HIV activity and cytotoxicity, respectively) were determined graphically. Both the EC50 and IC50 values were calculated by plotting drug concentration versus percent inhibition, and then identifying a 50% inhibition value from the graph.

The test system of series [1] is HIV-1 replication in H9 cells. Briefly: HIV-1 replication inhibition in acutely infected H9 lymphocytes (p24 antigen ELISA). The format is cell-based, HIV-1 (IIIB strain). To be noted: for EC50: Human immunodeficiency virus 1, H9, acutely infected H9 cells; for anti-HIV activity in H9 cells (in words): acutely infected H9 cells. On the procedure:
as §1, §2

Setting [2] is: H9, concentration which inhibits uninfected cell growth by 50%.
Setting [3] is: H9, read-out: IC50 (μM)^a, Table 14, concentration which inhibits uninfected cell growth by 50%.
Where [4] appears, read: concentration which inhibits viral replication by 50%, Inactive = No suppression of HIV-1 replication in H9 cells.
Where [5] appears, read: Human immunodeficiency virus 1, H9, read-out: IC50 (μM)^b.
Setting [6] is: IC50 for cell growth inhibition divided by EC50 for HIV inhibition, H9.
Where [7] appears, read: H9, Table 14, concentration which inhibits uninfected cell growth by 50%, read-out: IC50 (μM)^a.
The mark [8] stands for this setting: H9, concentration which inhibits uninfected cell growth by 50%, read-out: IC50.
Where [9] appears, read: concentration which inhibits viral replication by 50%, Inactive = No suppression of HIV-1 replication in H9 cells, read-out: EC50.
The mark [10] stands for this setting: Human immunodeficiency virus 1, Table 14, concentration which inhibits viral replication by 50%, Inactive = No suppression of HIV-1 replication in H9 cells, read-out: IC50 (μM)^b.

Consider `CC(C)=CCOc1c2occc2cc2ccc(=O)oc12` [Imperatorin, imperatorin, reference compound], for which the results for the IC50 (in the series on uninfected H9 cells (setting [2]); in the series on uninfected H9 cells (setting [3]); in series [1] (setting [5])) were greater than 74.1 µM, greater than 74.1 µM and 11.1 µM, respectively. In series [1] (setting [4]), this compound had an EC50 of 11.1 µM. The “Therapeutic Index” value in series [1] (setting [6]) and in series [1] (Table 14) was greater than 6.7 each time.

As for `CC(C)=CCOc1c2ccoc2cc2oc(=O)ccc12` [Isoimperatorin, isoimperatorin, reference compound], the concentration for half-maximal inhibition (IC50) in the series on uninfected H9 cells (setting [7]) was greater than 185 µM; in the series with uninfected H9 cells (setting [8]), greater than 185 µM; in series [1] (setting [10]) it was 40.7 µM. The EC50 in series [1] (setting [9]) worked out at 40.7 µM. In addition, the “Therapeutic Index” value in series [1] (setting [6]) and in series [1] (Table 14) was greater than 4.6 each time.

Turning to `CC1(C)O[C@H]1COc1c2ccoc2cc2oc(=O)ccc12` [Oxypeucedanin, oxypeucedanin, reference compound], the IC50 in the series with uninfected H9 cells (setting [7]) was greater than 69.9 µM; in the series on uninfected H9 cells (setting [8]), greater than 69.9 µM; in series [1] (setting [10]) it was 31.5 µM. The EC50 in series [1] (setting [9]) was 31.5 µM. Besides, the “Therapeutic Index” value in series [1] (setting [6]) and in series [1] (Table 14) was greater than 2.2 in each case.

As to `C/C=C(/C)C(=O)O[C@@H]1c2c(ccc3ccc(=O)oc23)OC(C)(C)[C@@H]1OC(C)=O` [Pteryxin, pteryxin, reference compound], the “increase of toxicity on replacing 4'-isovaleryl by angeloyl (versus suksdorfin)” value in the series on uninfected H9 cells (H9 cells) is 5 fold. The IC50 in the series on uninfected H9 cells (setting [2]) is greater than 10.4 µM; with uninfected H9 cells (setting [3]) it was greater than 10.4 µM; in series [1] (setting [5]), 4.6 µM. This compound also gave an EC50 in series [1] (setting [4]) of 4.6 µM. In addition, the “Therapeutic Index” value in series [1] (setting [6]) and in series [1] (Table 14) was greater than 3.7 throughout. The “anti-HIV activity in H9 cells (in words)” value is reported as “slightly reduced anti-HIV-l activity” in series [1] and “slightly reduced anti-HIV-1 activity” in series [1] (listed as pteryxn).
